Data taken from patent publication US20170334877A1, “REVAPRAZAN HYDROCHLORIDE POLYMORPHS AND PREPARATION METHOD THEREFOR” (JIANGSU TASLY DIYI PHARMACEUTICAL CO., LTD., priority 2014, published 2017).
Counter-ions that a name gives are not always drawn.

Legend:
[1] = High temperature test (60° C. incubator); type: physicochemical; conditions: for Appearance color / Loss on drying (%) / Purity (%) / Relevant substances: 60° C., hydrochloride
Description: Revaprazan hydrochloride crystalline form I is placed in a 60° C. incubator, and is sampled on the 5th day and 10th day for detection, and the results are shown in Table 2. Revaprazan hydrochloride crystalline form II is placed in a 60° C. incubator, and is sampled on the 5th day and 10th day for detection, and the results are shown in Table 6. Revaprazan hydrochloride polymorph III is placed in an incubator of 60° C., and is sampled on the 5th day and the 10th day for detection. Revaprazan hydrochloride crystalline form IV is placed in an incubator of 60° C., and is sampled on the 5th day and the 10th day for detection. Revaprazan hydrochloride crystal form 4 is placed in an incubator of 60° C.; and is sampled on the 5th day and the 10th day for detection, and the results are shown in Table 23.

[2] = Accelerated test (40±2° C., relative humidity 75±5%, 6 months, sealed polyethylene film bag); type: physicochemical; conditions: for Appearance color / Purity (%): 40±2° C., RH 75±5%; for Purity (%): hydrochloride
Description: Revaprazan hydrochloride crystalline form I is sealed in a polyethylene film bag, is placed for 6 months under the conditions that the temperature is 40±2° C. and the relative humidity is 75±5%, and is respectively sampled at the end of the 1st Month, the 2nd Month, the 3rd Month and the 6^thMonth for detection; and the results are shown in Table 4. Revaprazan hydrochloride crystalline form II is sealed in a polyethylene film bag and is placed for 6 months under the conditions that the temperature is 40±2° C. and the relative humidity is 75±5%, and is respectively sampled at the end of the 1st Month, the 2nd Month, the 3rd Month and the 6th Month for detection; and the results are shown in Table 8. Revaprazan hydrochloride crystalline form III is sealed in a polyethylene film bag, is placed for 6 months under the conditions that the temperature is 40±2° C. and the relative humidity is 75±5%, and is sampled at the end of the 1st Month, the 2nd Month, the 3rd Month and the 6th Month for detection. Revaprazan hydrochloride crystalline form IV is sealed in a polyethylene film bag, is placed for 6 months under the conditions that the temperature is 40±2° C. and the relative humidity is 75±5%, and is sampled at the end of the 1st Month, the 2nd Month, the 3rd Month and the 6th Month for detection. Revaprazan hydrochloride crystalline form V is sealed in a polyethylene film bag and is placed for 6 months under the condition that the temperature is 40±2° C. and the relative humidity is 75±5%, and is sampled at the end of the 1st month, the 2nd month, the 3rd month and the 6th month for detection, and the results are shown in Table 20.

[3] = High humidity test (25° C., relative humidity 75±5%); type: physicochemical; conditions: for Appearance color / Purity (%) / Relevant substances / Weight gain upon moisture absorption (%): 25° C., RH 75±5%
Description: Revaprazan hydrochloride crystalline form I is placed in an incubator of 25° C. (relative humidity of 75±5%), and is sampled on the 5th day and 10th day for detection. Revaprazan hydrochloride crystalline form II is placed in an incubator of 25° C. (relative humidity of 75±5%), and is sampled on the 5th day and 10th day for detection. Revaprazan hydrochloride polymorph III is placed in an incubator of 25° C. (relative humidity of 75±5%), and is sampled on the 5th day and the 10th day for detection. Revaprazan hydrochloride crystalline form IV is placed in an incubator of 25° C. Revaprazan hydrochloride crystal form 4 is placed in an incubator of 25° C. (the relative humidity is 75±5%), and is sampled on the 5th day and the 10th day for detection.

[4] = Light illumination test (intense light, 4500±500 Lx); type: physicochemical; conditions: for Appearance color / Loss on drying (%) / Purity (%) / Relevant substances: light 4500±500 Lx; for Loss on drying (%) / Purity (%) / Relevant substances: hydrochloride
Text: Revaprazan hydrochloride crystalline form I is irradiated under such a condition that the light intensity is 4500±500 Lx, and is sampled on the 5th day and 10th day for detection, and the results are shown in Table 1. Revaprazan hydrochloride crystalline form II is irradiated under the condition that the light intensity is 4500±500Lx, and is sampled on the 5th day and 10th day for detection. Revaprazan hydrochloride polymorph III is irradiated under such a condition that the light intensity is 4500±500Lx, and is sampled on the 5th day and 10th day for detection. Revaprazan hydrochloride […] is irradiated under such a condition that the light intensity is 4500±500Lx, and is sampled on the 5th day and the 10th day for detection. Revaprazan hydrochloride crystalline form V is irradiated under the light intensity condition of 4500±500Lx; and is sampled on the 5th day and 10th day for detection.

[5] = general statement in background art; cited from earlier work

Cc1nc(Nc2ccc(F)cc2)nc(N2CCc3ccccc3C2C)c1C (single isomer, unassigned) [revaprazan hydrochloride crystalline form II]
Appearance color ([1]; 5th day): White
Loss on drying (%) ([1]; 5th day): 0.27%
Purity (%) ([1]; 5th day): 99.97%
Relevant substances ([1]; 5th day): Not detected
Appearance color ([1]; 10th day): White
Loss on drying (%) ([1]; 10th day): 0.29%
Purity (%) ([1]; 10th day): 99.95%
Relevant substances ([1]; 10th day): Not detected
Appearance color ([1]; Day 0): White
Loss on drying (%) ([1]; Day 0): 0.23%
Purity (%) ([1]; Day 0): 99.94%
Relevant substances ([1]; Day 0): Not detected
Stability (conclusion in words) ([1]; high temperature, no obvious changes in appearance color, loss on drying, purity, relevant substances): stable
Appearance color ([2]; 1st month): White powder
Purity (%) ([2]; 1st month): 99.93%
Appearance color ([2]; 2nd month): White powder
Purity (%) ([2]; 2nd month): 99.95%
Appearance color ([2]; 3rd month): White powder
Purity (%) ([2]; 3rd month): 99.96%
Appearance color ([2]; 6th month): White powder
Purity (%) ([2]; 6th month): 99.95%
Appearance color ([2]; Month 0): White powder
Purity (%) ([2]; Month 0): 99.94%
Stability (conclusion in words) ([2]; accelerated test, no obvious changes in appearance color, purity, relevant substances): stable
Appearance color ([3]; 5th day): White powder
Purity (%) ([3]; 5th day, hydrochloride): 99.93%
Relevant substances ([3]; 5th day, hydrochloride): Not detected
Weight gain upon moisture absorption (%) ([3]; 5th day, hydrochloride): 0.42%
Appearance color ([3]; 10th day): White powder
Purity (%) ([3]; 10th day, hydrochloride): 99.95%
Relevant substances ([3]; 10th day, hydrochloride): Not detected
Weight gain upon moisture absorption (%) ([3]; 10th day, hydrochloride): 0.64%
Appearance color ([3]; Day 0): White powder
Weight gain upon moisture absorption (%) ([3]; Day 0): 0%
Purity (%) ([3]; Day 0, hydrochloride): 99.94%
Relevant substances ([3]; Day 0, hydrochloride): Not detected
Weight gain upon moisture absorption (in words) ([3]; high humidity condition): slight weight gain
Stability (conclusion in words) ([3]; high humidity, no obvious changes in appearance color, purity, relevant substances): stable
Stability (conclusion in words) ([4]; intense light illumination, no obvious changes in appearance color, loss on drying, purity, relevant substances): stable
Appearance color ([4]; 5th day): White powder
Loss on drying (%) ([4]; 5th day): 0.26%
Purity (%) ([4]; 5th day): 99.97%
Relevant substances ([4]; 5th day): Not detected
Appearance color ([4]; 10th day): White powder
Loss on drying (%) ([4]; 10th day): 0.28%
Purity (%) ([4]; 10th day): 99.94%
Relevant substances ([4]; 10th day): Not detected
Appearance color ([4]; Day 0): White powder
Loss on drying (%) ([4]; Day 0): 0.25%
Purity (%) ([4]; Day 0): 99.94%
Relevant substances ([4]; Day 0): Not detected

Cc1nc(Nc2ccc(F)cc2)nc(N2CCc3ccccc3C2C)c1C (stereo not shown) [Revaprazan hydrochloride]
Time to maximum plasma concentration [5]: about 1 h
